Source: the NIST ThermoML archive (doi:10.1016/j.jct.2016.09.022)

How the values were obtained:
[1] = Liquid; for speed of sound: Frequency=1.5 MHz, Single path-length method; for mass density: 298.15 K, 101.33 kPa, Vibrating tube method
[2] = refractive index (Na D-line) (dimensionless); conditions: 298.15 K; 101.33 kPa; Liquid; Standard Abbe refractometry

CCO [ethanol]
speed of sound [m/s], [1]
Conditions	283.15 K	293.15 K	303.15 K	313.15 K	323.15 K	333.15 K	343.15 K
100 kPa	1198.8	1163.8	1129.3	1094.7	1060.4	1027	992.92
5100 kPa	1227.7	1193.5	1159.8	1127.7	1094.5	1062.7	1030.2
10100 kPa	1255.7	1222.5	1189.8	1157.4	1126.5	1096.3	1065.8
20100 kPa	1306.5	1275.6	1245	1214.7	1185.2	1156.9	1129
30100 kPa	1353.1	1323.7	1295	1266.5	1238.8	1212.1	1185.8
40100 kPa	1397	1368.7	1340.6	1313.5	1287.5	1262.3	1237.5
50100 kPa	1437.9	1410.7	1384.2	1358.2	1332.4	1310.5	1284.9
60100 kPa	1476.1	1449.9	1424.6	1399.1	1374.8	1351.2	1328.8
70100 kPa	1512.5	1486.8	1462.7	1438.4	1414.7	1391.9	1370.2
80100 kPa	1547.2	1522.1	1498.1	1475.7	1452	1429.6	1409.5
90100 kPa	1580.2	1555.7	1532.5	1510.1	1487.5	1466.1	1446.3
95100 kPa	1596.1	1571.8	1549.3	1526.4	1504.5	1483.5	1464.1

Conditions	mass density [kg/m3]	refractive index
[1]	785.1	–
[2]	–	1.3593

CCCCCCC [heptane]
speed of sound [m/s], [1]
Conditions	283.15 K	293.15 K	303.15 K	313.15 K	323.15 K	333.15 K	343.15 K
100 kPa	1197.2	1153.9	1111.4	1068.8	1025.9	983.91	942.89
5100 kPa	1231.5	1189.6	1148.8	1108.9	1068.6	1028.8	989.64
10100 kPa	1263.8	1223.4	1184.1	1145.2	1107.3	1069.8	1032.5
20100 kPa	1323.2	1284.8	1248.7	1212.3	1176.7	1141.9	1108.4
30100 kPa	1376.7	1340.1	1306.4	1272.1	1239	1206.4	1174.6
40100 kPa	1426.3	1391.5	1359.2	1326.3	1295.3	1264.6	1234.9
50100 kPa	1472.5	1439	1408.5	1377.4	1346.7	1317.4	1289.3
60100 kPa	1515.6	1483.3	1454.5	1424.7	1395.2	1366.6	1339.5
70100 kPa	1556.1	1525.3	1497.4	1468.7	1440.1	1412.9	1387
80100 kPa	1593.8	1564.9	1538.3	1510.3	1482.6	1456	1431.2
90100 kPa	1629.7	1602.3	1577	1549.8	1522.8	1496.7	1472.7
95100 kPa	1646.4	1620.6	1595	1568.8	1542.2	1516.4	1492.7

Conditions	mass density [kg/m3]	refractive index
[1]	679.5	–
[2]	–	1.3852

CCCCCC [hexane]
speed of sound [m/s], [1]
Conditions	283.15 K	293.15 K	303.15 K	313.15 K	323.15 K	333.15 K	343.15 K
100 kPa	1147.3	1102.8	1056.2	1011.6	966.77	923.14	–
105 kPa	–	–	–	–	–	–	877.65
5100 kPa	1183.8	1141.9	1097.9	1055.9	1013.6	972.45	931.79
10100 kPa	1218.6	1177.2	1135.8	1096.4	1056.7	1017.2	977.66
20100 kPa	1283.2	1243.4	1204.4	1167.8	1131.8	1096.3	1060.6
30100 kPa	1339.6	1302.4	1266.5	1231.8	1197.6	1164	1131.3
40100 kPa	1391.9	1356	1321.9	1289.3	1256.9	1225.4	1194.6
50100 kPa	1440.2	1405.9	1373.7	1341.4	1311	1280.6	1252.1
60100 kPa	1484.8	1452.3	1421.1	1390.3	1361.3	1331.7	1304.4
70100 kPa	1526.9	1495.6	1464.4	1435.6	1408.2	1380.5	1354.1
80100 kPa	1566.5	1536.7	1508.3	1478.3	1451.5	1425.6	1400.1
90100 kPa	1604.6	1575.4	1548	1519.6	1493	1467.5	1442.2
95100 kPa	1622.6	1594.1	1567.1	1539.5	1512.6	1487.5	1463.4

Conditions	mass density [kg/m3]	refractive index
[1]	654.9	–
[2]	–	1.3723

CO [methanol]
speed of sound [m/s], [1]
Conditions	283.15 K	293.15 K	303.15 K	313.15 K	323.15 K	333.15 K	343.15 K
100 kPa	1154.3	1120.6	1087.4	1054.5	1022	989.77	–
120 kPa	–	–	–	–	–	–	957.61
5100 kPa	1182	1149.2	1118	1087	1055.8	1025.2	994.42
10100 kPa	1209.3	1176.2	1146.4	1116.8	1087.2	1058	1028.6
20100 kPa	1258.7	1227.4	1199.4	1171.1	1143.8	1117.2	1090.6
30100 kPa	1303.6	1274.2	1248.1	1221.5	1195.3	1169.8	1144.9
40100 kPa	1345.2	1316.8	1292.5	1267.3	1242.7	1218.6	1194.9
50100 kPa	1384.4	1357	1333.7	1309.7	1286.3	1263.6	1241
60100 kPa	1421	1394.9	1372.8	1349.4	1326.6	1304.8	1283.5
70100 kPa	1456.2	1430.8	1409.7	1387.1	1365	1343.6	1323.1
80100 kPa	1489.1	1464.7	1444.6	1422.7	1401.3	1380.8	1361.1
90100 kPa	1520.7	1496.7	1477.7	1456.3	1435.9	1415.9	1396.8
95100 kPa	1536	1512.3	1493.8	1472.6	1452.3	1432.7	1414

Conditions	mass density [kg/m3]	refractive index
[1]	786.5	–
[2]	–	1.3263

CCCCCCCC [octane]
speed of sound [m/s], [1]
Conditions	283.15 K	293.15 K	303.15 K	313.15 K	323.15 K	333.15 K	343.15 K
100 kPa	1234.6	1193.7	1151.8	1112.1	1071.1	1030.9	990.7
5100 kPa	1267.1	1227.9	1187.6	1149	1110.4	1072.4	1034.3
10100 kPa	1296.9	1259.5	1221	1183.4	1146.1	1110.1	1074.2
20100 kPa	1353.6	1317.2	1282.1	1247.3	1212.3	1178.2	1145
30100 kPa	1405.7	1370.4	1336.8	1303.8	1271.6	1239.8	1208.7
40100 kPa	1453.5	1419.6	1388.1	1356.4	1325.3	1295	1265.9
50100 kPa	1498	1465.6	1435.5	1405.1	1375.2	1346.2	1318
60100 kPa	1539.8	1508.4	1480	1450.7	1421.8	1393.9	1367.8
70100 kPa	1579.8	1549	1521.7	1493.2	1465.5	1438.5	1412.8
80100 kPa	1619	1587.3	1561.4	1533.6	1506.6	1480.2	1455.5
90100 kPa	1652.4	1623.9	1598.9	1571.9	1545.7	1519.8	1496
95100 kPa	1670.7	1641.8	1617	1590.2	1564.5	1539	1515.2

Conditions	mass density [kg/m3]	refractive index
[1]	698.4	–
[2]	–	1.3951
